{
  "source": "PubChem BioAssay AID248",
  "about": "(DTP/NCI, 2004)",
  "system": "L1210 leukemia ip in BDF1 mice, survival T/C",
  "assay": "NCI In Vivo Anticancer Drug Screen. Data for tumor model L1210 Leukemia (intraperitoneal) in B6D2F1 (BDF1) mice",
  "conditions": "endpoint: mean survival time, higher = longer survival",
  "procedure,_shortened": "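Survival endpoint. Drug-treated group vs vehicle group, expressed as T divided by C. Tumor passaged by transplantation.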",
  "key": {"[1]": {"conditions": "dose: 100.0 mg/kg/injection, schedule: Q01DX009 (ip), vehicle: Klucel (hydroxypropylcellulose) (HPC)"}, "[2]": {"conditions": "dose: 200.0 mg/kg/injection, schedule: Q01DX009 (ip), vehicle: Klucel (hydroxypropylcellulose) (HPC)"}, "[3]": {"conditions": "dose: 400.0 mg/kg/injection, schedule: Q01DX009 (ip), vehicle: Klucel (hydroxypropylcellulose) (HPC)"}, "[4]": {"conditions": "dose: 50.0 mg/kg/injection, schedule: Q01DX009 (ip), vehicle: saline with Tween-80"}, "[5]": {"conditions": "dose: 100.0 mg/kg/injection, schedule: Q01DX009 (ip), vehicle: saline with Tween-80"}, "[6]": {"conditions": "dose: 200.0 mg/kg/injection, schedule: Q01DX009 (ip), vehicle: saline with Tween-80"}, "[7]": {"conditions": "dose: 400.0 mg/kg/injection, schedule: Q01DX009 (ip), vehicle: saline with Tween-80"}, "[8]": {"conditions": "dose: 100.0 mg/kg/injection, schedule: Q04DX002 (ip), vehicle: Klucel (hydroxypropylcellulose) (HPC)"}, "[9]": {"conditions": "dose: 200.0 mg/kg/injection, schedule: Q04DX002 (ip), vehicle: Klucel (hydroxypropylcellulose) (HPC)"}, "[10]": {"conditions": "dose: 400.0 mg/kg/injection, schedule: Q04DX002 (ip), vehicle: Klucel (hydroxypropylcellulose) (HPC)"}},
  "note": "Several values for one entry are separate records, joined by “and”; a condition that tells them apart may be missing. Equal entries are not always repeated. Toxic doses and inconclusive results are not listed.",
  "data": [
    {"smiles": "Nc1nc(N)c2nc(CNc3ccc(C(=O)NC(CCCCC(=O)O)C(=O)O)cc3)cnc2n1", "note": "(centres undefined)", "values": [
      {"measurement": "T/C", "setting": "dose: 20.0 mg/kg/injection, schedule: Q01DX009 (ip), vehicle: sodium bicarbonate", "value": "157 % of control"}
    ]},
    {"smiles": "CCCCOCCOP(OCCOCCCC)OCCOCCCC", "values": [
      {"measurement": "T/C", "setting": "[1]", "value": "101 % of control"},
      {"measurement": "T/C", "setting": "[2]", "value": "102 % of control"},
      {"measurement": "T/C", "setting": "[3]", "value": "90 % of control"}
    ]},
    {"smiles": "C=CCOC(=N)c1ccccc1", "values": [
      {"measurement": "T/C", "setting": "[4]", "value": "93 % of control"},
      {"measurement": "T/C", "setting": "[5]", "value": "105 % of control"},
      {"measurement": "T/C", "setting": "[6]", "value": "91 % of control"}
    ]},
    {"smiles": "C(=N\\n1cnnc1)/c1ccccc1/C=N/n1cnnc1", "values": [
      {"measurement": "T/C", "setting": "[5]", "value": "116 % of control"},
      {"measurement": "T/C", "setting": "dose: 100.0 mg/kg/injection, schedule: Q04DX003 (ip), vehicle: saline with Tween-80", "value": "103 % of control"},
      {"measurement": "T/C", "setting": "[6]", "value": "96 % of control"},
      {"measurement": "T/C", "setting": "dose: 200.0 mg/kg/injection, schedule: Q04DX003 (ip), vehicle: saline with Tween-80", "value": "100 % of control"},
      {"measurement": "T/C", "setting": "[7]", "value": "89 % of control"},
      {"measurement": "T/C", "setting": "dose: 400.0 mg/kg/injection, schedule: Q04DX003 (ip), vehicle: saline with Tween-80", "value": "89 % of control"}
    ]},
    {"smiles": "C[N+]1(C)CC2C3C=CC(C3)C2C1", "note": "(centres undefined)", "values": [
      {"measurement": "T/C", "setting": "dose: 100.0 mg/kg/injection, schedule: Q04DX003 (ip), vehicle: Klucel (hydroxypropylcellulose) (HPC)", "value": "102 % of control"},
      {"measurement": "T/C", "setting": "dose: 200.0 mg/kg/injection, schedule: Q04DX003 (ip), vehicle: Klucel (hydroxypropylcellulose) (HPC)", "value": "96 % of control"}
    ]},
    {"smiles": "Cc1c(Cl)cccc1NC(=S)Nc1ccccc1", "values": [
      {"measurement": "T/C", "setting": "[8]", "value": "100 % of control"},
      {"measurement": "T/C", "setting": "[9]", "value": "95 % of control"},
      {"measurement": "T/C", "setting": "[10]", "value": "95 % of control"}
    ]},
    {"smiles": "CCCCCCCCCCCCSC1CC(=O)N(c2ccccc2)C1=O", "note": "(centres undefined)", "values": [
      {"measurement": "T/C", "setting": "dose: 37.5 mg/kg/injection, schedule: Q04DX003 (ip), vehicle: other", "value": "99 % of control and 109 % of control"},
      {"measurement": "T/C", "setting": "dose: 50.0 mg/kg/injection, schedule: Q01DX001 (ip), vehicle: other", "value": "98 % of control and 101 % of control and 104 % of control"},
      {"measurement": "T/C", "setting": "dose: 75.0 mg/kg/injection, schedule: Q04DX003 (ip), vehicle: other", "value": "86 % of control and 89 % of control"},
      {"measurement": "T/C", "setting": "dose: 100.0 mg/kg/injection, schedule: Q04DX002 (ip), vehicle: other", "value": "95 % of control and 89 % of control"},
      {"measurement": "T/C", "setting": "dose: 100.0 mg/kg/injection, schedule: Q04DX003 (ip), vehicle: other", "value": "103 % of control"},
      {"measurement": "T/C", "setting": "dose: 150.0 mg/kg/injection, schedule: Q04DX003 (ip), vehicle: other", "value": "86 % of control and 88 % of control"},
      {"measurement": "T/C", "setting": "dose: 200.0 mg/kg/injection, schedule: Q04DX002 (ip), vehicle: other", "value": "89 % of control and 92 % of control"},
      {"measurement": "T/C", "setting": "dose: 200.0 mg/kg/injection, schedule: Q04DX003 (ip), vehicle: other", "value": "97 % of control"},
      {"measurement": "T/C", "setting": "dose: 400.0 mg/kg/injection, schedule: Q04DX002 (ip), vehicle: other", "value": "96 % of control and 89 % of control"},
      {"measurement": "T/C", "setting": "dose: 400.0 mg/kg/injection, schedule: Q04DX003 (ip), vehicle: other", "value": "94 % of control"}
    ]},
    {"smiles": "O=C(O)/C=C/c1ccncc1", "values": [
      {"measurement": "T/C", "setting": "dose: 100.0 mg/kg/injection, schedule: Q01DX001 (ip), vehicle: other", "value": "103 % of control"},
      {"measurement": "T/C", "setting": "[8]", "value": "93 % of control"},
      {"measurement": "T/C", "setting": "dose: 100.0 mg/kg/injection, schedule: Q04DX003 (ip), vehicle: saline", "value": "103 % of control"},
      {"measurement": "T/C", "setting": "dose: 200.0 mg/kg/injection, schedule: Q01DX001 (ip), vehicle: other", "value": "105 % of control"},
      {"measurement": "T/C", "setting": "[9]", "value": "86 % of control"},
      {"measurement": "T/C", "setting": "dose: 200.0 mg/kg/injection, schedule: Q04DX003 (ip), vehicle: saline", "value": "92 % of control"},
      {"measurement": "T/C", "setting": "dose: 400.0 mg/kg/injection, schedule: Q01DX001 (ip), vehicle: other", "value": "97 % of control"},
      {"measurement": "T/C", "setting": "[10]", "value": "93 % of control"}
    ]},
    {"smiles": "CC(=O)N(C)c1ccc(NC(=O)Nc2cc(C(F)(F)F)ccc2Cl)cc1", "values": [
      {"measurement": "T/C", "setting": "[1]", "value": "96 % of control"},
      {"measurement": "T/C", "setting": "[2]", "value": "94 % of control"},
      {"measurement": "T/C", "setting": "[3]", "value": "94 % of control"}
    ]},
    {"smiles": "CC(=O)Oc1c(Cl)cc(Cl)cc1Cl", "values": [
      {"measurement": "T/C", "setting": "[5]", "value": "107 % of control"},
      {"measurement": "T/C", "setting": "[6]", "value": "100 % of control"},
      {"measurement": "T/C", "setting": "[7]", "value": "100 % of control"}
    ]},
    {"smiles": "[O-]/[N+](=N\\O)c1ccc(/[N+]([O-])=N\\O)cc1", "values": [
      {"measurement": "T/C", "setting": "dose: 12.5 mg/kg/injection, schedule: Q01DX009 (ip), vehicle: saline with Tween-80", "value": "88 % of control"},
      {"measurement": "T/C", "setting": "dose: 25.0 mg/kg/injection, schedule: Q01DX009 (ip), vehicle: saline with Tween-80", "value": "88 % of control"},
      {"measurement": "T/C", "setting": "[4]", "value": "97 % of control and 107 % of control and 91 % of control"},
      {"measurement": "T/C", "setting": "dose: 100.0 mg/kg/injection, schedule: Q01DX001 (ip), vehicle: saline with Tween-80", "value": "95 % of control"},
      {"measurement": "T/C", "setting": "[5]", "value": "102 % of control"},
      {"measurement": "T/C", "setting": "dose: 200.0 mg/kg/injection, schedule: Q01DX001 (ip), vehicle: saline with Tween-80", "value": "98 % of control"},
      {"measurement": "T/C", "setting": "[6]", "value": "87 % of control"}
    ]}
  ]
}
